Experimental findings from US20260207578A1, “COMPOUND BASED ON SULFUR/OXYGEN SUBSTITUTED GLUTARIMIDE-BASED ISOINDOLINONE SKELETON AND USE THEREOF” (Gluetacs Therapeutics (Shanghai) Co., LTD., priority 2022, published 2026) are described below.

SMILES strings stand for the structures.

For one test, the system named is THP-1. As to the kind of experiment: Half inhibitory concentration (IC50) against tumor cells, Cell Counting Kit-8. Format: cell-based. Conditions: Homo sapiens, CCK-8, 96 h treatment, read-out: inhibitory activity (IC50, nM) against tumor cells proliferation. For orientation: Tetrazolium assays rely on reduction of a dye to a coloured formazan, in cell work by metabolically active cells.

A further test has as its system MM.1R. The description is as above. Format: cell-based. The settings on record: Homo sapiens, CCK-8, 96 h treatment, read-out: inhibitory activity (IC50, nM) against tumor cells proliferation.
Another test concerns MDA-MB-231. The description is as above. Format: cell-based. The settings on record: Homo sapiens, CCK-8, 96 h treatment, read-out: inhibitory activity (IC50, nM) against tumor cells proliferation.
For the next test, the system named is CCRF-CEM. The test is described as above. Format: cell-based. Conditions: Homo sapiens, CCK-8, 96 h treatment, read-out: inhibitory activity (IC50, nM) against tumor cells proliferation.
Another test has as its system MM.1S. Described as above. Format: cell-based. The settings on record: Homo sapiens, MM1.S, CCK-8, 96 h treatment, read-out: inhibitory activity (IC50, nM) against tumor cells proliferation.
For a further test, the system named is JEKO-1. The test is described as above. Format: cell-based. Conditions: Homo sapiens, CCK-8, 96 h treatment, read-out: inhibitory activity (IC50, nM) against tumor cells proliferation.
Another test concerns CAL-62. The test is described as above. Format: cell-based. Conditions: Homo sapiens, CCK-8, 96 h treatment, read-out: inhibitory activity (IC50, nM) against tumor cells proliferation.
In a further test the test system is Daudi. Described as above. Conditions: Homo sapiens, CCK-8, 96 h treatment, read-out: inhibitory activity (IC50, nM) against tumor cells proliferation. Format: cell-based.
For the next test, the system named is MV-4-11. The description is as above. Format: cell-based. Conditions: Homo sapiens, MV4-11, CCK-8, 96 h treatment, read-out: inhibitory activity (IC50, nM) against tumor cells proliferation.
The next test concerns Kasumi-1. The test is described as above. Conditions: Homo sapiens, CCK-8, 96 h treatment, read-out: inhibitory activity (IC50, nM) against tumor cells proliferation. Format: cell-based.
In test [1] the target is T1, human Cereblon WT GST-tagged protein (Homo sapiens, UniProt Q96SW2).
T1 construct: purchased CISBIO 64BDCRBNPEH
Nature of the test: CRBN-binding affinity, HTRF (CEREBLON BINDING kit). The settings on record: displacement of Thalidomide-Re reagent, 3 hours at room temperature. The method, boiled down: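 HTRF competition format: compound, GST-tagged wild-type human Cereblon, Thalidomide-Re tracer and GST Eu antibody were combined in PROTAC binding buffer. Binding was derived from emission at 620 nm relative to blank and solvent control wells.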
(In TR-FRET formats the signal depends on donor and acceptor labels being close together.)

Another test addresses T2, IKZF3 (Homo sapiens, UniProt Q96SW2+Q9UKT9).
T2 construct: endogenous in cells; host or cells: human PBMCs (Milecell Biotechnologies)
Nature of the test: Western-blot assay, substrate protein in hPBMCs. Format: cell-based. Conditions: hPBMC cells, 24 hours, tested at 50 nM and 500 nM, table does not say which. The gist of the method:
(§1)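 hPBMCs (1×10^6 cells/mL) exposed 24 h to compound at 50 nM and 500 nM, lysed, and probed by Western blot. Band grayscale normalized to internal control gives % protein remaining versus DMSO; DC50 from concentration-response fit at half DMSO band intensity.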

Another test has as its target T3, IKZF1 (Homo sapiens, UniProt Q13422+Q96SW2).
T3 construct: endogenous in cells; host or cells: human PBMCs (Milecell Biotechnologies)
As to the kind of experiment: Western-blot assay, substrate protein in hPBMCs. Format: cell-based. Conditions: hPBMC cells, 24 hours, tested at 50 nM and 500 nM, table does not say which. The gist of the method: as §1

For a further test, the target named is T4, Wee1 (Homo sapiens, UniProt P30291+Q96SW2).
T4 construct: endogenous in cells; host or cells: human PBMCs (Milecell Biotechnologies)
As to the kind of experiment: Western-blot assay, substrate protein in hPBMCs. Format: cell-based. The settings on record: hPBMC cells, 24 hours, tested at 50 nM and 500 nM, table does not say which. The method, boiled down:
(§2)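 Steps: treat hPBMCs 24 h; lyse on ice in RIPA with phosphatase inhibitors; quantify protein by BCA; denature at 95 °C and blot. Remaining protein (%) is the target/internal-control band ratio, normalised; degradation rate is its complement.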

Another test has as its target T5, CK1α (Homo sapiens, UniProt P48729+Q96SW2).
T5 construct: endogenous in cells; host or cells: human PBMCs (Milecell Biotechnologies)
As to the kind of experiment: Western-blot assay, substrate protein in hPBMCs. The settings on record: hPBMC cells, 24 hours, tested at 50 nM and 500 nM, table does not say which. Format: cell-based. The method, boiled down: as §2

Another test concerns the target T6, GSPT1 (Homo sapiens, UniProt P15170+Q96SW2).
T6 construct: endogenous in cells; host or cells: human PBMCs (Milecell Biotechnologies)
Nature of the test: Western-blot assay, substrate protein in hPBMCs. Conditions: hPBMC cells, 24 hours, tested at 50 nM and 500 nM, table does not say which. Format: cell-based. The method, boiled down: as §2

The target in a further test is T7, IKZF2 (Homo sapiens, UniProt Q96SW2+Q9UKS7).
T7 construct: endogenous in cells; host or cells: human PBMCs (Milecell Biotechnologies)
As to the kind of experiment: Western-blot assay, substrate protein in hPBMCs. Format: cell-based. The settings on record: hPBMC cells, 24 hours, tested at 50 nM and 500 nM, table does not say which. The method, boiled down:
as §2

T2 sequence (Q9UKT9 whole entry): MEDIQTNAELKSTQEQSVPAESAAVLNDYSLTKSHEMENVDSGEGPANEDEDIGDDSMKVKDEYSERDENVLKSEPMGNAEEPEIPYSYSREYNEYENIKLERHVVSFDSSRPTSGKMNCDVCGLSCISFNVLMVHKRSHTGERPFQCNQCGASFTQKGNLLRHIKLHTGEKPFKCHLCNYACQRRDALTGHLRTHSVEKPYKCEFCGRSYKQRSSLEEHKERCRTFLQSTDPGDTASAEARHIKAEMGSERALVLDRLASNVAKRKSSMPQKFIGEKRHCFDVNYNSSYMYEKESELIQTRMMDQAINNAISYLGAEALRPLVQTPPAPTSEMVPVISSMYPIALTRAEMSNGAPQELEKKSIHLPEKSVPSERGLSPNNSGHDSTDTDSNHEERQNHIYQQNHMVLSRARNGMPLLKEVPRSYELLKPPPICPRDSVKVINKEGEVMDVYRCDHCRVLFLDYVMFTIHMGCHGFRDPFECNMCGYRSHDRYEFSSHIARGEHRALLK
T2 sequence (Q96SW2 whole entry): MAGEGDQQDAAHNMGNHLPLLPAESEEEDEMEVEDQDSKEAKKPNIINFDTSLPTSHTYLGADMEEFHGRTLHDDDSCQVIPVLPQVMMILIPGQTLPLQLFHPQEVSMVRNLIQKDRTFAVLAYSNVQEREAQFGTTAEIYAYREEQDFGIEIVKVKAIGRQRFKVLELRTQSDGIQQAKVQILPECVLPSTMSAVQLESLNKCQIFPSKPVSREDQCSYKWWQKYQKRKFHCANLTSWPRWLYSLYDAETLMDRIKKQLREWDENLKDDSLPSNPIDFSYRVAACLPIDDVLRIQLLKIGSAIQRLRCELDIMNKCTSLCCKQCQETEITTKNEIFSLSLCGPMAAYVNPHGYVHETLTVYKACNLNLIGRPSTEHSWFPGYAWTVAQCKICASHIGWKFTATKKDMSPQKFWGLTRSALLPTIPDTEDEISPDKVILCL
T2 sequence (Q16531 whole entry partner): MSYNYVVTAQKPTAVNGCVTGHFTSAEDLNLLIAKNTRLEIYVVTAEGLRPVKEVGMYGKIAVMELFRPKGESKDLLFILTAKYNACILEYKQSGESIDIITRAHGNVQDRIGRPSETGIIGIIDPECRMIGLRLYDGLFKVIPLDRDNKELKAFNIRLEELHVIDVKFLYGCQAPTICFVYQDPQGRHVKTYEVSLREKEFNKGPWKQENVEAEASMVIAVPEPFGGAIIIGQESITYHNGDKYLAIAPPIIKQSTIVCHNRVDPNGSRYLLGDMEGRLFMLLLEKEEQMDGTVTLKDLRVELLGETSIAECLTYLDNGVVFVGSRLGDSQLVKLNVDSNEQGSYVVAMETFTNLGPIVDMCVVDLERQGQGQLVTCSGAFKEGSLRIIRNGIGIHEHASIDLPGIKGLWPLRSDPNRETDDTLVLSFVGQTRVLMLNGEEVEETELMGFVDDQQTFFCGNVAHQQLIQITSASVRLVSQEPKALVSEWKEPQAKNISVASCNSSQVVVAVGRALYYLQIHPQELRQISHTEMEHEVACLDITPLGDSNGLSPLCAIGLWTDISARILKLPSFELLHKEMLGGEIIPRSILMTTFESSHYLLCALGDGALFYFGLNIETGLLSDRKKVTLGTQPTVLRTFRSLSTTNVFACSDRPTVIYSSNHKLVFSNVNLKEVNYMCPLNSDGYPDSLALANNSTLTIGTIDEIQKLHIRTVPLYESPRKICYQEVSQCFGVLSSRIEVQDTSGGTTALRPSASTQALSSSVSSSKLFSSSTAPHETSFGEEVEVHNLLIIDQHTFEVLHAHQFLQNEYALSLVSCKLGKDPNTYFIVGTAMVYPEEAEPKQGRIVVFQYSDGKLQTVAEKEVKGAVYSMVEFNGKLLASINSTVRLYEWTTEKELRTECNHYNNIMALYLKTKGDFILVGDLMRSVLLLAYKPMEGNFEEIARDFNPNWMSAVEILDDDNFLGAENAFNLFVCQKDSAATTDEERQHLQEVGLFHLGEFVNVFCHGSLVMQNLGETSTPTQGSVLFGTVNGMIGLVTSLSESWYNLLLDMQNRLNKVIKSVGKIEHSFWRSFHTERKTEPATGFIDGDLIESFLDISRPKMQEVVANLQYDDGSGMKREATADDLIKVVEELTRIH
T6 sequence (P15170 whole entry): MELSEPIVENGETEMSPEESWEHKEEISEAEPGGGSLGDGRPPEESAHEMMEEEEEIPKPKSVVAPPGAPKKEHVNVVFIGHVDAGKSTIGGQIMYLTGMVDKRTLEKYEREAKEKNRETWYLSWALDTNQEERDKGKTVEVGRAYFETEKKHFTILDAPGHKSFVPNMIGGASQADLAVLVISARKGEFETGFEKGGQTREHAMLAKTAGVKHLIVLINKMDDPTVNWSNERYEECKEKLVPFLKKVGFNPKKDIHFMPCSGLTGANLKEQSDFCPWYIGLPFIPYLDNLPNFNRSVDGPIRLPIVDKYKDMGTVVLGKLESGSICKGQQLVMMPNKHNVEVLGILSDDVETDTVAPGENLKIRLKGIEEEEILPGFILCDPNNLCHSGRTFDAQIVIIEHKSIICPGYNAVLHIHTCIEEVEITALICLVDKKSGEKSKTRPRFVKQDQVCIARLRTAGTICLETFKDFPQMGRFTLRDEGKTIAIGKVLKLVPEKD
T6 sequence (Q96SW2 whole entry): as the sequence (Q96SW2 whole entry) above
T6 sequence (Q16531 whole entry partner): as the sequence (Q16531 whole entry partner) above
T5 sequence (P48729 whole entry): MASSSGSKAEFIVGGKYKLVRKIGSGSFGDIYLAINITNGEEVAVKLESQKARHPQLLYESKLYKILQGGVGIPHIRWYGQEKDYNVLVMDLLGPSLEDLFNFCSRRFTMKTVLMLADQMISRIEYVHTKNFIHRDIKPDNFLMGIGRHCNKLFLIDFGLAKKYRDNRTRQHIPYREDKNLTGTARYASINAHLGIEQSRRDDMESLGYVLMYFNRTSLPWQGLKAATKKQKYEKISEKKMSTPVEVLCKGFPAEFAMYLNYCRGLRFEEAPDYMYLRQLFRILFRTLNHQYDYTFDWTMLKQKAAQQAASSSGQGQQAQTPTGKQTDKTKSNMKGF
T5 sequence (Q96SW2 whole entry): as the sequence (Q96SW2 whole entry) above
T5 sequence (Q16531 whole entry partner): as the sequence (Q16531 whole entry partner) above
T3 sequence (Q13422 whole entry): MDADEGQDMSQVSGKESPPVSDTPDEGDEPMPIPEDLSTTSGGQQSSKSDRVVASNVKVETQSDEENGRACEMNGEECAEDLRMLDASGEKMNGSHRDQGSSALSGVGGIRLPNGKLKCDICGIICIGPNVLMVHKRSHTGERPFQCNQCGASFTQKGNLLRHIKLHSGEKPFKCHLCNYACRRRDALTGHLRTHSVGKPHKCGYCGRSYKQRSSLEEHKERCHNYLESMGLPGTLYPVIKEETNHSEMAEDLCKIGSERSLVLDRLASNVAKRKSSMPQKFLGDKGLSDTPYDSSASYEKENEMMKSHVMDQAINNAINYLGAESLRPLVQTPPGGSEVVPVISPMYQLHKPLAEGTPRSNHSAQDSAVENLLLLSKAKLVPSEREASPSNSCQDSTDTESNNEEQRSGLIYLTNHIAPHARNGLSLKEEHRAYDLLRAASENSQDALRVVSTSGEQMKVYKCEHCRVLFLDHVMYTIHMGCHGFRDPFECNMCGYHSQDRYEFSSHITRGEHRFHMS
T3 sequence (Q96SW2 whole entry): as the sequence (Q96SW2 whole entry) above
T3 sequence (Q16531 whole entry partner): as the sequence (Q16531 whole entry partner) above
T1 sequence (Q96SW2 whole entry): as the sequence (Q96SW2 whole entry) above
T7 sequence (Q9UKS7 whole entry): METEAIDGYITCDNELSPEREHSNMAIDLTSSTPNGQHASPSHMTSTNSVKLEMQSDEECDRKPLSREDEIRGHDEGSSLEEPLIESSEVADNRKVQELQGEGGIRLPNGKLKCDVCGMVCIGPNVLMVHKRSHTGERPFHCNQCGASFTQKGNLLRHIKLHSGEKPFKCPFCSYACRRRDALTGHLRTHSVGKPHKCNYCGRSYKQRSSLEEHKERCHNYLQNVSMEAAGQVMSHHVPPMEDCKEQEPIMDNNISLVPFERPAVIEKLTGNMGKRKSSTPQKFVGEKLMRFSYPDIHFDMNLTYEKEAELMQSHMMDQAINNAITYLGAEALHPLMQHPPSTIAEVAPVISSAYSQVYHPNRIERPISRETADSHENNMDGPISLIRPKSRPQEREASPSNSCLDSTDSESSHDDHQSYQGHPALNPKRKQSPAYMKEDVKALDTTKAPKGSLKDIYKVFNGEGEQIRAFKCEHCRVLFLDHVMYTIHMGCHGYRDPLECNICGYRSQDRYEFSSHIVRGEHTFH
T7 sequence (Q96SW2 whole entry): as the sequence (Q96SW2 whole entry) above
T7 sequence (Q16531 whole entry partner): as the sequence (Q16531 whole entry partner) above

Consider `Nc1cccc2c1C(=O)N(C1CCC(=O)NC1=O)C2=O` (centres unmarked) [pomalidomide, reference compound], for which the IC50 in the test with THP-1 is above 10000 nM; in the test with MM.1R it was above 10000 nM; in the test with MDA-MB-231, above 10000 nM; in the test on CCRF-CEM it was above 10000 nM; in the test on MM.1S, 500 to 1000 nM; in the test on JEKO-1, above 10000 nM. In addition, the IC50 with CAL-62, in the test on Daudi, with MV-4-11 and in the test on Kasumi-1 was above 10000 nM throughout.

Take `O=C1CCC(N2Cc3cc(OC4CN(Cc5ccccc5-c5ccc(Cl)cc5)C4)ccc3C2=O)C(=O)N1` (centres unmarked) [GT-03363, 3-(5-((1-((4′-chloro-[1,1′-biphenyl]-2-yl)methyl)azetidin-3-yl)oxy)-1-oxoisoindolin-2-yl)piperidine-2,6-dione]: the IC50 in the test on CCRF-CEM lay in the range of 100 to 500 nM; in the test with JEKO-1, 100 to 500 nM; in [1], 500 to 1000 nM. For the same molecule, the “substrate protein remaining %” value at IKZF3, at IKZF1, on Wee1, at CK1α and on GSPT1 was “A (0%≤ substrate protein remaining % ≤80%)” each time.

In the case of `O=C1CCC(N2Cc3cc(SC4CN(Cc5ccccc5-c5ccc(Cl)cc5)C4)ccc3C2=O)C(=O)N1` (centres unmarked) [GT-03360, 3-(5-((1-((4′-chloro-[1,1′-biphenyl]-2-yl)methyl)azetidin-3-yl)thio)-1-oxoisoindolin-2-yl)piperidine-2,6-dione], the IC50 with THP-1 was 10 to 50 nM; in the test on MM.1R, 50 to 100 nM; in the test with MDA-MB-231 it was 100 to 500 nM; with CCRF-CEM, 50 to 100 nM; in the test on MM.1S it was 100 to 500 nM; in the test on JEKO-1, 100 to 500 nM. Moreover, the IC50 in the test on CAL-62 is 50 to 100 nM; with Daudi it was below 1 nM; in the test with MV-4-11, 100 to 500 nM; in the test on Kasumi-1 it was 100 to 500 nM; in test [1], below 500 nM. Also, the “substrate protein remaining %” value on IKZF3, on IKZF1, on CK1α, on GSPT1 and at IKZF2 was “A (0%≤ substrate protein remaining % ≤80%)” throughout.

As to `O=C1CCC(N2Cc3cc(SC4CCN(Cc5ccccc5-c5ccc(Cl)cc5)CC4)ccc3C2=O)C(=O)N1` (centres unmarked) [GT-03357, 3-(5-((1-((4′-chloro-[1,1′-biphenyl]-2-yl)methyl)piperidin-4-yl)thio)-1-oxoisoindolin-2-yl)piperidine-2,6-dione], the IC50 in the test on CCRF-CEM and with Daudi was 100 to 500 nM throughout. Also, the “substrate protein remaining %” value at IKZF3 and at GSPT1 was “A (0%≤ substrate protein remaining % ≤80%)” throughout.
